{"source": "paper PMC10017709", "about": "“Structural basis of selective cannabinoid CB2 receptor activation” (Nature Communications, 2023)", "key": {"hCB2R": {"biological_target": "T1, hCB2R (Homo sapiens, UniProt P34972)", "T1 construct": "host or cells: CHO-K1 (CHOK1_hCB2bgal, PathHunter), membranes", "assay": "[3H]RO6957022 competition association assay", "type": "binding", "settings": "individual replicates"}, "CB2R-L182^ECL2I": {"biological_target": "CB2R-L182^ECL2I (Homo sapiens, UniProt P34972, L182I)", "sequence (P34972 whole entry L182I)": "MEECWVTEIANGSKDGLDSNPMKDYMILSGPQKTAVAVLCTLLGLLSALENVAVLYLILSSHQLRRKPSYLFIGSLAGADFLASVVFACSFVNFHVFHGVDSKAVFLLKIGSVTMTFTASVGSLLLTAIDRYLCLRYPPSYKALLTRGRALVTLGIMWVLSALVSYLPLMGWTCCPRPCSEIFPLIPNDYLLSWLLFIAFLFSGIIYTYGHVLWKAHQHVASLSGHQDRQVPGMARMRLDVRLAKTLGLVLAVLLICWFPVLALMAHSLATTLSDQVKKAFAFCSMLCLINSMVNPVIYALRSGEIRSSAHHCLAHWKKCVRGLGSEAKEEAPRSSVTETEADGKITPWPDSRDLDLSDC", "assay": "[35S]GTPγS assay, CB2R L182I mutant", "type": "biochemical", "settings": "L182I mutant; at 10 µM compared to WT; read-out: Emax (%)"}, "CB2R WT [1]": {"biological_target": "T2, CB2R WT (Homo sapiens, UniProt P34972)", "T2 sequence (P34972 whole entry)": "as the sequence (P34972 whole entry L182I) above, with I182L counted along it", "assay": "[3H]CP55,940 displacement assay, CB2R WT", "type": "binding", "settings": "CB2R - WT, individual replicates"}, "hCB1R WT": {"biological_target": "hCB1R WT (Homo sapiens, UniProt P21554)", "sequence (P21554 whole entry)": "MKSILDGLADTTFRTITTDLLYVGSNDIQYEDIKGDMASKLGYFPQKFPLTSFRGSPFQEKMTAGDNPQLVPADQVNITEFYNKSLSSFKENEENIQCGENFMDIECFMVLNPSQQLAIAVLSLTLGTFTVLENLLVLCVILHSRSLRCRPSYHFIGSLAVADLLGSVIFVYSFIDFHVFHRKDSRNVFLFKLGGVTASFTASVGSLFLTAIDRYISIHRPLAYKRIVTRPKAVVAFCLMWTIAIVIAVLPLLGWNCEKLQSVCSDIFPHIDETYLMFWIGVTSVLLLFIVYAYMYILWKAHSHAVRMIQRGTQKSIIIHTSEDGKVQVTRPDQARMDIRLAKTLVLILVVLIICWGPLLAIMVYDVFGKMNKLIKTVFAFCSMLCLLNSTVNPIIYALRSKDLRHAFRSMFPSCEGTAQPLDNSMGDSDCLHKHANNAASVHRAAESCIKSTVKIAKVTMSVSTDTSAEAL", "assay": "[3H]CP55,940 displacement assay, CB1R WT", "type": "binding"}, "CB1R QuadrupleTM1,7": {"biological_target": "T3, CB1R QuadrupleTM1,7 (Homo sapiens, UniProt P21554, I119V/Q116K/S123C/T377K)", "T3 construct": "The WT CB1R and CB2R genes were subcloned into vector pcDNA3.1; HA signal peptide (N); expressed in transfected cells; host or cells: HEK293T (transient, membrane homogenates)", "T3 sequence (P21554 whole entry Q116K/I119V/S123C/T377K)": "as the sequence (P21554 whole entry) above, with Q116K, I119V, S123C, T377K counted along it", "assay": "[3H]CP55,940 displacement assay, CB1R quadruple mutant", "type": "binding"}, "CB2R-I110^3.29L": {"biological_target": "CB2R-I110^3.29L (Homo sapiens, UniProt P34972, I110L)", "sequence (P34972 whole entry I110L)": "as the sequence (P34972 whole entry L182I) above, with I110L, I182L counted along it", "assay": "[35S]GTPγS assay, CB2R I110L mutant", "type": "biochemical", "settings": "for [35S]GTPγS binding: I1103.29L, individual replicates"}, "CB2R WT [2]": {"biological_target": "T2, CB2R WT", "assay": "[35S]GTPγS G protein activation assay, CB2R WT", "type": "biochemical", "settings": "for Emax: CB2R WT, read-out: Emax (%); for [35S]GTPγS binding, percentage of CP55,940: individual replicates"}, "CB1R-L359^6.51V": {"biological_target": "CB1R-L359^6.51V (Homo sapiens, UniProt P21554, L359V)", "sequence (P21554 whole entry L359V)": "as the sequence (P21554 whole entry) above, with L359V counted along it", "assay": "[3H]CP55,940 displacement assay, CB1R L359V mutant", "type": "binding"}}, "note": "“And” between values parts separate entries of the source, which are not always exact repeats. Equal entries are not always repeated. Where two headings read alike, the source gives them in different places.", "data": [{"molecule": "CC(C)(C)[C@@H](CO)NC(=O)c1nn(-c2c[n+]([O-])ccn2)c2c1C[C@@H]1C[C@H]21", "note": "[APD371]", "values": [{"measurement": "percentage specific [3H]RO6957022 binding (competition association)", "setting": "hCB2R; Time 10 min", "value": "24.18% and 36.84% and 30.72%"}, {"measurement": "percentage specific [3H]RO6957022 binding (competition association)", "setting": "hCB2R; Time 20 min", "value": "40.15% and 32.14% and 34.58%"}, {"measurement": "percentage specific [3H]RO6957022 binding (competition association)", "setting": "hCB2R; Time 30 min", "value": "39.61% and 32.25% and 36.63%"}, {"measurement": "percentage specific [3H]RO6957022 binding (competition association)", "setting": "hCB2R; Time 45 min", "value": "20.89% and 29.77% and 37.77%"}, {"measurement": "percentage specific [3H]RO6957022 binding (competition association)", "setting": "hCB2R; Time 60 min", "value": "31.24% and 38.79% and 36.98%"}, {"measurement": "percentage specific [3H]RO6957022 binding (competition association)", "setting": "hCB2R; Time 90 min", "value": "31.73% and 32.90% and 39.73%"}, {"measurement": "percentage specific [3H]RO6957022 binding (competition association)", "setting": "hCB2R; Time 120 min", "value": "27.67% and 36.63% and 31.55%"}, {"measurement": "Emax", "setting": "CB2R-L182^ECL2I", "value": "17 ± 4", "unit": "%"}, {"measurement": "percentage specific [3H]CP55,940 binding", "setting": "CB2R WT [1]; log [ligand] (M) -5", "value": "6.97% and 9.11% and 6.37%"}, {"measurement": "percentage specific [3H]CP55,940 binding", "setting": "CB2R WT [1]; log [ligand] (M) -6", "value": "8.91% and 9.80% and 15.97%"}, {"measurement": "percentage specific [3H]CP55,940 binding", "setting": "CB2R WT [1]; log [ligand] (M) -7", "value": "35.26% and 29.34% and 24.47%"}, {"measurement": "percentage specific [3H]CP55,940 binding", "setting": "CB2R WT [1]; log [ligand] (M) -8", "value": "67.55% and 60.65% and 76.97%"}, {"measurement": "percentage specific [3H]CP55,940 binding", "setting": "CB2R WT [1]; log [ligand] (M) -9", "value": "110.80% and 85.34% and 106.79%"}, {"measurement": "percentage specific [3H]CP55,940 binding", "setting": "CB2R WT [1]; log [ligand] (M) -10", "value": "91.01% and 87.78% and 110.76%"}, {"measurement": "percentage specific [3H]CP55,940 binding", "setting": "hCB1R WT; CB1R - WT, 10 µM ligand, replicates 1-3", "value": "104.41 percentage and 153.95 percentage and 99.24 percentage"}, {"measurement": "Displacement (%) of [3H]CP55,940", "setting": "hCB1R WT; CB1R WT, 10 µM compound", "value": "-19 ± 17", "unit": "%"}, {"measurement": "Displacement (%) of [3H]CP55,940", "setting": "CB1R QuadrupleTM1,7; CB1R Quadruple TM1,7, 10 µM compound", "value": "0 ± 25", "unit": "%"}, {"measurement": "percentage specific [3H]CP55,940 binding", "setting": "CB1R QuadrupleTM1,7; CB1R QuadrupleTM1,7, 10 µM ligand, replicates 1-3", "value": "125.90 percentage and 49.87 percentage and 125.34 percentage"}, {"measurement": "Emax", "setting": "CB2R-I110^3.29L; I110L mutant, at 10 µM compared to WT, read-out: Emax (%)", "value": "101 ± 7", "unit": "%"}, {"measurement": "[35S]GTPγS binding", "setting": "CB2R-I110^3.29L; log [ligand] (M) -5", "value": "88.75 percentage of WT and 114.10 percentage of WT and 98.70 percentage of WT"}, {"measurement": "[35S]GTPγS binding", "setting": "CB2R-I110^3.29L; log [ligand] (M) -6", "value": "65.58 percentage of WT and 82.80 percentage of WT and 68.20 percentage of WT"}, {"measurement": "[35S]GTPγS binding", "setting": "CB2R-I110^3.29L; log [ligand] (M) -7", "value": "37.92 percentage of WT and 48.30 percentage of WT and 43.20 percentage of WT"}, {"measurement": "[35S]GTPγS binding", "setting": "CB2R-I110^3.29L; log [ligand] (M) -8", "value": "16.04 percentage of WT and -5.10 percentage of WT and 25.10 percentage of WT"}, {"measurement": "[35S]GTPγS binding", "setting": "CB2R-I110^3.29L; log [ligand] (M) -9", "value": "37.59 percentage of WT and -1.70 percentage of WT and -8.60 percentage of WT"}, {"measurement": "[35S]GTPγS binding", "setting": "CB2R-I110^3.29L; log [ligand] (M) -10", "value": "-2.00 percentage of WT and -5.20 percentage of WT"}, {"measurement": "Emax", "setting": "CB2R WT [2]; maximum effect at 10 µM compared to WT (Suppl. Table 6)", "value": "109 ± 3", "unit": "%"}, {"measurement": "Emax", "setting": "CB2R WT [2]; maximum effect compared to CP55,940", "value": "134 ± 12", "unit": "%"}, {"measurement": "[35S]GTPγS binding, percentage of CP55,940", "setting": "CB2R WT [2]; log [agonist] (M) -5", "value": "148.28% and 110.29% and 144.01%"}, {"measurement": "[35S]GTPγS binding, percentage of CP55,940", "setting": "CB2R WT [2]; log [agonist] (M) -6", "value": "121.47% and 91.68% and 110.37%"}, {"measurement": "[35S]GTPγS binding, percentage of CP55,940", "setting": "CB2R WT [2]; log [agonist] (M) -7", "value": "71.38% and 61.86% and 107.40%"}, {"measurement": "[35S]GTPγS binding, percentage of CP55,940", "setting": "CB2R WT [2]; log [agonist] (M) -8", "value": "40.70% and 28.22% and 92.24%"}, {"measurement": "[35S]GTPγS binding, percentage of CP55,940", "setting": "CB2R WT [2]; log [agonist] (M) -9", "value": "-4.49% and -11.58% and 35.79%"}, {"measurement": "[35S]GTPγS binding, percentage of CP55,940", "setting": "CB2R WT [2]; log [agonist] (M) -10", "value": "14.57% and -14.11% and 7.29%"}, {"measurement": "Displacement (%) of [3H]CP55,940", "setting": "CB1R-L359^6.51V; CB1R L359V, 10 µM compound", "value": "18 ± 9", "unit": "%"}, {"measurement": "percentage specific [3H]CP55,940 binding", "setting": "CB1R-L359^6.51V; CB1R L3596.51V, 10 µM ligand, replicates 1-3", "value": "78.52 percentage and 68.29 percentage and 98.34 percentage"}]}]}
